SMILES strings stand for the structures. Where a name gives a salt, the structure may show the parent alone.

The record followed here is patent publication US11999758B2, “Inhibitors of the YAP/TAZ-TEAD interaction and their use in the treatment of cancer” (INVENTIVA, priority 2018, dated 2024).

For this assay, the target named is T1, YAP-TEAD interaction (Homo sapiens, UniProt P28347).
T1 construct: expressed in transfected cells; host or cells: HEK293 GripTite 293 MSR (Invitrogen R795-07)
As to the kind of experiment: Cell-based TEAD-GAL4 transactivation assay (luciferase reporter). The conditions noted are these: HEK293 cells transfected with TEAD1-Gal4, YAP mutant (S127A, S397A) and luciferase reporter, compounds 0.1 μM to 30 μM; for Emax: HEK293, 24 h, read-out: TEAD-GAL4 Transactivation activity Max Act; for IC50: 24 h. Here is the method:
To identify inhibitors of YAP-TEAD interaction, a transient transactivation assay was carried out on HEK293 cell line (HEK293 GripTite™ 293 MSR (Invitrogen R795-07)) using plasmids containing the full length TEAD1 sequences, the full length YAP mutant (S127A, S397A) and a luciferase gene reporter. All expression constructs were performed into a pSG5 backbone plasmid in which the SV40 promoter was replaced by the CMV promoter. The TEAD1 construct was prepared by cloning the full-length human TEAD1 cDNA in fusion with the Gal4 DNA Binding Domain (AA 1-148) into pSG5_CMV to create the TEAD1 (FL)_hum_pSG5Gal4_CMV. The full-length YAP mutant (S127A, S397A) was also cloned into pSG5_CMV to create the YAP (FL)_hum_pSG5_mutS127A_S397A_CMV. The reporter plasmid GAL4(5×RE)_TK(−105/+56)_pGL3-Basic contains 5 copies of the GAL4 responsive element (5′-TCGGAGGACAGTACTCC-3′) upstream of the thymidine kinase (TK) promoter (−105/+56) inserted in a pGL3-Basic vector. To evaluate the selectivity of our compounds in blocking the YAP-TEAD interaction, a counter-screening protein-protein interaction transactivation assay was also established. Briefly, two other expression plasmids, the pBD-P53 which expresses the P53 (AA 72-390) in fusion with Gal4 and the pAD-SV40T which expresses the SV40 large T antigen (AA 84-708,AgT), were created. HEK293 cells were seeded at 5×10^4 cells/well in 96 well plates (assay plates) in DMEM medium containing 4.5 g/L D-glucose, 10% high inactivated (HI) fetal bovine serum 1% Glutamax, 1% non-essential amino acid and 1% sodium pyruvate and 0.5% penicillin/streptomycin at 37° C. in a humidified atmosphere of 8% CO2. After 24 h, transfections were performed using Jet-PEI as transfectant (101B-010 Polyplus Transfection), according to the instructions of the manufacturer (N/P=10) and a ratio YAP/TEAD=10 (per well: 50 ng of YAP(FL), 5 ng of TEAD(FL) and 50 ng of reporter plasmid). Six hours after cell transfection, the plates (‘assay plate’) were washed with 100 μl PBS per well and cells were treated with compounds in semi-log from 0.1 μM to 30 μM or DMSO 0.5% as control in DMEM, 4.5 g/L D-Glucose without phenol red, 0.3% BSA, 1% glutamax, 1% NEAA, 1% sodium pyruvate. 24 h later, the luciferase activity was determined after addition of 100 μl of Steady Glo™ luciferase assay system (Promega E2550) according to the manufacturer's directions. Luciferase activity in cell extracts was measured by reading luminescence using the Envision device.
The cellular response was determined by fitting the concentration response curves using a 3-parameter curve fit equation and determining the concentration that inhibited the luciferase activity by 50%.

T1 sequence (P28347 whole entry): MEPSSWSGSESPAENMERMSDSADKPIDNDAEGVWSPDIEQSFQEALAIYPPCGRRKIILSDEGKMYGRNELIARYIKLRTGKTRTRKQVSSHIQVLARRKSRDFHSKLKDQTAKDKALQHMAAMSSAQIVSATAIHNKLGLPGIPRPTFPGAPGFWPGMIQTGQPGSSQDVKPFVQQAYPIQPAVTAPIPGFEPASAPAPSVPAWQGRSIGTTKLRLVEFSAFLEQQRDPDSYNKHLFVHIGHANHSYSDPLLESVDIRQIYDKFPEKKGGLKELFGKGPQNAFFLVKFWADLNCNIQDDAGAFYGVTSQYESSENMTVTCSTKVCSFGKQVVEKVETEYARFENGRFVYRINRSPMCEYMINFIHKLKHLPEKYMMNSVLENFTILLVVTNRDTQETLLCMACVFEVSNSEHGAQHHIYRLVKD

For the compound `CCN(/N=C/c1ccc2c(c1)COB2O)c1ncnc2cc(C)sc12` [Ex90, N-ethyl-N-[(E)-(1-hydroxy-3H-2,1-benzoxaborol-5-yl)methyleneamino]-6-methyl-thieno[3,2-d]pyrimidin-4-amine], the Emax is 83% and the concentration for half-maximal inhibition (IC50) came out at 1260 nM.

As for `CCN(/N=C/c1ccc2c(c1)COB2O)c1ncnc2c3c(sc12)CCCC3` [Ex91, N-ethyl-N-[(E)-(1-hydroxy-3H-2,1-benzoxaborol-5-yl)methyleneamino]-6,7,8,9-tetrahydrobenzothiopheno[3,2-d]pyrimidin-4-amine], the Emax came to 85% and the IC50 is 640 nM.

On to `Cc1csc2c(N(CC(C)C)/N=C/c3ccc4c(c3)COB4O)ncnc12` [Ex93, N-[(E)-(1-hydroxy-3H-2,1-benzoxaborol-5-yl)methyleneamino]-N-isobutyl-7-methyl-thieno[3,2-d]pyrimidin-4-amine], for which the Emax came out at 80% and it took 710 nM to reach half-maximal inhibition (IC50).

In the case of `COCCCN(/N=C/c1ccc2c(c1)COB2O)c1ncnc2nc(SC)sc12` [Ex96, N-[(E)-(1-hydroxy-3H-2,1-benzoxaborol-5-yl)methyleneamino]-N-(3-methoxypropyl)-2-methylsulfanyl-thiazolo[4,5-d]pyrimidin-7-amine], the Emax is 87% and it took 100 nM to reach half-maximal inhibition (IC50).

As for `Cc1csc2c(N(CCO)/N=C/c3ccc4c(c3)COB4O)ncnc12` [Ex97, 2-[[(E)-(1-hydroxy-3H-2,1-benzoxaborol-5-yl)methyleneamino]-(7-methylthieno[3,2-d]pyrimidin-4-yl)amino]ethanol], the Emax was found to be 79% and the IC50 was 660 nM.

On to `CN(/N=C/c1ccc2c(c1)COB2O)c1ncnc2c1CCC(=O)N2` [Ex100, 4-[[(E)-(1-hydroxy-3H-2,1-benzoxaborol-5-yl)methyleneamino]-methyl-amino]-6,8-dihydro-5H-pyrido[2,3-d]pyrimidin-7-one], for which the Emax amounted to 85% and half-maximal inhibition (IC50) required 1410 nM.

On to `CN(/N=C/c1ccc2c(c1)COB2O)c1ncnc2c1CCO2` [Ex101, N-[(E)-(1-hydroxy-3H-2,1-benzoxaborol-5-yl)methyleneamino]-N-methyl-5,6-dihydrofuro[2,3-d]pyrimidin-4-amine], for which the Emax came out at 94% and the IC50 amounted to 900 nM.

For the compound `CN(/N=C/c1ccc2c(c1)COB2O)c1ncnc2c(-c3ccccc3)csc12` [Ex102, N-[(E)-(1-hydroxy-3H-2,1-benzoxaborol-5-yl)methyleneamino]-N-methyl-7-phenyl-thieno[3,2-d]pyrimidin-4-amine], the Emax is 87% and the IC50 turned out to be 1990 nM.

Take `CN(/N=C/c1ccc2c(c1)COB2O)c1ncnc2c(C3CC3)csc12` [Ex103, 7-cyclopropyl-N-[(E)-(1-hydroxy-3H-2,1-benzoxaborol-5-yl)methyleneamino]-N-methyl-thieno[3,2-d]pyrimidin-4-amine]: the Emax came out at 79% and the IC50 is 710 nM.

With `CN(/N=C/c1ccc2c(c1)COB2O)c1ncnc2c(N3CCOCC3)csc12` [Ex104, N-[(E)-(1-hydroxy-3H-2,1-benzoxaborol-5-yl)methyleneamino]-N-methyl-7-morpholino-thieno[3,2-d]pyrimidin-4-amine], the Emax is 79% and the IC50 came to 1760 nM.

Regarding `CCc1csc2c(N(C)/N=C/c3ccc4c(c3)COB4O)ncnc12` [Ex105, 7-ethyl-N-[(E)-(1-hydroxy-3H-2,1-benzoxaborol-5-yl)methyleneamino]-N-methyl-thieno[3,2-d]pyrimidin-4-amine], the Emax turned out to be 83% and the midpoint of inhibition, the IC50, lay at 510 nM.

As to `CN1CCc2c1ncnc2N(C)/N=C/c1ccc2c(c1)COB2O` [Ex106, N-[(E)-(1-hydroxy-3H-2,1-benzoxaborol-5-yl)methyleneamino]-N,7-dimethyl-5,6-dihydropyrrolo[2,3-d]pyrimidin-4-amine], the Emax stood at 83% and the IC50 amounted to 1060 nM.

For the compound `CN(/N=C/c1ccc2c(c1)COB2O)c1ncnc2c1[nH]c(=O)n2C1CCC1` [Ex107, 9-cyclobutyl-6-[[(E)-(1-hydroxy-3H-2,1-benzoxaborol-5-yl)methyleneamino]-methyl-amino]-7H-purin-8-one], the Emax worked out at 87% and half-maximal inhibition (IC50) was put at 1650 nM.

As to `COCC1CC(n2c(=O)[nH]c3c(N(C)/N=C/c4ccc5c(c4)COB5O)ncnc32)C1` (stereo not shown) [Ex108, 6-[[(E)-(1-hydroxy-3H-2,1-benzoxaborol-5-yl)methyleneamino]-methyl-amino]-9-[3-(methoxymethyl)cyclobutyl]-7H-purin-8-one], the Emax was 82% and half-maximal inhibition (IC50) was put at 2590 nM.

Turning to `CN(/N=C/c1ccc2c(c1)COB2O)c1ncnc2c1[nH]c(=O)n2C1CC(O)C1` (stereo not shown) [Ex109, 6-[[(E)-(1-hydroxy-3H-2,1-benzoxaborol-5-yl)methyleneamino]-methyl-amino]-9-(3-hydroxycyclobutyl)-7H-purin-8-one hydrochloride], the Emax was found to be 86% and it took 1650 nM to reach half-maximal inhibition (IC50).

`CN(/N=C/c1ccc2c(c1)COB2O)c1ncnc2c1CC(=O)N2C1CCC1` [Ex111, 7-cyclobutyl-4-[[(E)-(1-hydroxy-3H-2,1-benzoxaborol-5-yl)methyleneamino]-methyl-amino]-5H-pyrrolo[2,3-d]pyrimidin-6-one]: the Emax came to 83% and the IC50 turned out to be 1580 nM.

Take `CCCNC(=O)c1csc2c(N(CC)/N=C/c3ccc4c(c3)COB4O)ncnc12` [Ex112, 4-[ethyl-[(E)-(1-hydroxy-3H-2,1-benzoxaborol-5-yl)methyleneamino]-amino]-N-propyl-thieno[3,2-d]pyrimidine-7-carboxamide]: the Emax was determined as 79% and the midpoint of inhibition, the IC50, lay at 1870 nM.

Take `CCN(/N=C/c1ccc2c(c1)COB2O)c1ncnc2c(C(=O)N(C)C)csc12` [Ex113, 4-[ethyl-[(E)-(1-hydroxy-3H-2,1-benzoxaborol-5-yl)methyleneamino]-amino]-N,N-dimethyl-thieno[3,2-d]pyrimidine-7-carboxamide]: the Emax worked out at 70% and 5210 nM corresponded to half-maximal inhibition (IC50).

Consider `CCCCN(CCCC)C(=O)c1csc2c(N(CC)/N=C/c3ccc4c(c3)COB4O)ncnc12` [Ex114, N,N-dibutyl-4-[ethyl-[(E)-(1-hydroxy-3H-2,1-benzoxaborol-5-yl)methyleneamino]amino]thieno[3,2-d]pyrimidine-7-carboxamide], for which the Emax was found to be 83% and the IC50 is 1740 nM.

In the case of `CCN(/N=C/c1ccc2c(c1)COB2O)c1ncnc2c(C(=O)NC3COC3)csc12` [Ex115, 4-[ethyl-[(E)-(1-hydroxy-3H-2,1-benzoxaborol-5-yl)methyleneamino]amino]-N-(oxetan-3-yl)thieno[3,2-d]pyrimidine-7-carboxamide], the Emax worked out at 79% and the IC50 came to 1740 nM.

On to `CCN(/N=C/c1ccc2c(c1)COB2O)c1ncnc2c(C(=O)NCCCCOC)csc12` [Ex116, 4-[ethyl-[(E)-(1-hydroxy-3H-2,1-benzoxaborol-5-yl)methyleneamino]-amino]-N-(4-methoxybutyl)thieno[3,2-d]pyrimidine-7-carboxamide], for which the Emax stood at 86% and the IC50 was found to be 1940 nM.

Consider `CC1CCC(c2ccc3c(c2)COB3O)=NN1c1ncnc2occc12` (stereo not shown) [Ex117, 4-[6-(1-hydroxy-3H-2,1-benzoxaborol-5-yl)-3-methyl-4,5-dihydro-3H-pyridazin-2-yl]furo[2,3-d]pyrimidine], for which the Emax came to 82% and the IC50 was determined as 690 nM.

As to `CC1CCC(c2ccc3c(c2)COB3O)=NN1c1ncnc2ccsc12` (stereo not shown) [Ex121, 4-[6-(1-hydroxy-3H-2,1-benzoxaborol-5-yl)-3-methyl-4,5-dihydro-3H-pyridazin-2-yl]thieno[3,2-d]pyrimidine], the Emax was 80% and the IC50 worked out at 720 nM.

As a reminder, the IC50 is the midpoint of a concentration-inhibition curve. A higher IC50 goes with weaker potency.
